Data reported in patent publication US12465605B2, “Methods and materials for gender-dependent treatment of cardiovascular dysfunction” (Mayo Foundation for Medical Education and Research, priority 2019, dated 2025).

How the values were obtained:
sGC = target: T1, sGC (Mus musculus, UniProt O54865); assay: sGC signaling (phospho-VASP239) in mouse aortic valve interstitial cells; type: cell-based; settings: otherwise naïve mVICs, vs vehicle-treated cells
T1 construct: endogenous in cells; host or cells: primary mouse aortic valve interstitial cells (mVICs) from C57BL6/J mice
T1 sequence (O54865 1-620): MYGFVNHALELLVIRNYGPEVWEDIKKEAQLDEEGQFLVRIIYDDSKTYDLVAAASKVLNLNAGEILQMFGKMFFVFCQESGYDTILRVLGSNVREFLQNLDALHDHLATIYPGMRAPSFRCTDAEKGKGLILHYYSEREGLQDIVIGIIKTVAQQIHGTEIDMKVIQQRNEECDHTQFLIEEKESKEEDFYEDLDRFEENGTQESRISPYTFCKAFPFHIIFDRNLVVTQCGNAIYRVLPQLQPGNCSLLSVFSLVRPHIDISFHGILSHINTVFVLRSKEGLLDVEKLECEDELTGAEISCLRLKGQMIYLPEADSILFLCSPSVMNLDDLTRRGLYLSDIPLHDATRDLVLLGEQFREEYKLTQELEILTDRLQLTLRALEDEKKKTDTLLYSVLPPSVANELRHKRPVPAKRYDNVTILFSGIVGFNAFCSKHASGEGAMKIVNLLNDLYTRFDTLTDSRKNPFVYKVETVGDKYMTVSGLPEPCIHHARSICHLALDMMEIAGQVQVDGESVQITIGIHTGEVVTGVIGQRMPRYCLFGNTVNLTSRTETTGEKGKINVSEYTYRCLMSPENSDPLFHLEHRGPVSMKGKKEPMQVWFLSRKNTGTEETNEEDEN
T1 sequence (Q9ERL9 1-691 partner): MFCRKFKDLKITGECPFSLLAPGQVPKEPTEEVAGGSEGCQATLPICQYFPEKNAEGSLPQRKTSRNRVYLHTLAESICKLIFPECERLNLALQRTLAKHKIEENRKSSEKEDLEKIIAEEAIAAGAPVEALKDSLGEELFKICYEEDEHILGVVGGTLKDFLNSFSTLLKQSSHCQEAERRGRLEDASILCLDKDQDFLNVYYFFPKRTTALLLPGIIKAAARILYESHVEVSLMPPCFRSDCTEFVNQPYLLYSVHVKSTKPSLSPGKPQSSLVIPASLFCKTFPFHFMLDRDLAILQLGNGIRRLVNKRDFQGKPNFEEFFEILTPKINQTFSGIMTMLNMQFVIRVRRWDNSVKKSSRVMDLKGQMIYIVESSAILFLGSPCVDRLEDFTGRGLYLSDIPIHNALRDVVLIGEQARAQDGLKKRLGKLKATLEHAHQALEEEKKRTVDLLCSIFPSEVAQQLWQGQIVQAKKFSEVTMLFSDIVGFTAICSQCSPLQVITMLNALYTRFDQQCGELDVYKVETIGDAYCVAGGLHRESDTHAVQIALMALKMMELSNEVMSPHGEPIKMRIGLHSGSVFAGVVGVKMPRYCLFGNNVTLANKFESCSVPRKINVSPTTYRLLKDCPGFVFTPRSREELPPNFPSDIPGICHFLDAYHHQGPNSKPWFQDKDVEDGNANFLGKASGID
Protocol: To confirm that ataciguat effectively activated sGC in cells, mouse aortic valve interstitial cells (mVICs) were isolated from C57BL6/J mice treated with ataciguat or other sGC agonists as internal controls. […] To determine whether ataciguat could attenuate signaling cascades central to the initiation and progression of valve calcification in vitro, cells were treated with BMP2 with or without ataciguat. In these studies, ataciguat reduced phospho-SMAD1/5/8 signaling (e.g., canonical BMP signaling) as well as expression of osteogenic genes induced by BMP2 (e.g., osterix).

[1] = system: patients with mild-to-moderate calcific aortic valve stenosis; assay: Phase II clinical trial, six months, progression of valve disease; type: in vivo, human
Description: Phase II clinical trial design: Patients with mild-to-moderate calcific aortic valve stenosis (valve area between 1.0 cm^2 and 2.0 cm^2) with well-preserved left ventricular function (ejection fraction>50%) and significant valve calcification (calcium levels>300 units by computed tomography scanning) were recruited for participation in a randomized, double-blind, placebo-controlled trial. After screening, patients were randomized into two groups: • (1) placebo treatment for a minimum of 6 months, or • (2) ataciguat treatment for a minimum of 6 months Patients underwent computed tomography measurements of aortic valve calcification, echocardiographic assessments of ventricular and aortic valve function, and DEXA scanning for assessment of systemic bone mineral density at baseline and at six month intervals after initiation of treatment.
LPA studies in humans with aortic valve calcification: Human plasma LPA levels were measured using a colorimetric, sandwich/quantitative ELISA assay (AB212165) after samples were diluted in diluent buffer. Computed tomography scanning was performed using clinical grade, high-resolution scanning methods that are well-established for assessment of aortic valve calcification. The calcium burden was measured from 3-dimensional, multi-slice images and expressed as arbitrary units (AU).
To determine whether ataciguat could slow progression of FCAVS, a randomized, double-blind, placebo-controlled study was conducted in patients with mild/moderate valvular disease. Key eligibility criteria for the study included valvular calcium levels above 300 AU, a valve area between 1.0 and 2.0 cm^2, an ejection fraction greater than 50%, and absence of congenital heart valve disease (full inclusion/exclusion criteria is shown in TABLE 1). Patients were randomized to placebo or ataciguat treatment for six months, and a subset of patients received treatment for 12 months. Importantly, there was no difference in measured hemodynamic, blood biochemistry, drug treatment, or comorbidity indices between treatment groups at baseline. Given the relatively short duration of follow-up, the primary outcome variable was the change in valvular calcium over time. Secondary and tertiary outcomes were aortic valve and left ventricular function, respectively.

[2] = 200 mg/day, all subjects combined
[3] = 200 mg/day, both sexes combined

## O=C(Nc1ccc(S(=O)(=O)N2CCOCC2)cc1)c1cc(Cl)ccc1NS(=O)(=O)c1ccc(Cl)s1 [ataciguat, 5-chloro-2-[[(5-chloro-2-thienyl)sulfonyl]amino]-N-[4-(4-morpholinylsulfonyl)phenyl]-benzamide]
sGC
  sGC-dependent signaling (phospho-VASP^239 levels): significantly increased
[1]; 200 mg/day
  changes in aortic valve area, male versus female patients: therapeutic benefit was predominantly conferred to male patients
  changes in peak transvalvular velocity: negligible impact
[1]; [2]
  aortic pulse pressure (index of arterial stiffness), seated: attenuated
  left ventricular diastolic function (E/e′ or E/A ratio): attenuate further progression of diastolic dysfunction
  left ventricular systolic function (ejection fraction or stroke volume): prevent the decline in left ventricular function
[1]; [3]
  changes in aortic valve area: can attenuate progression of aortic valve dysfunction
  progression of valve calcification: significantly attenuated
[1]; 200 mg/day, female subjects
  left ventricular stroke volume: potential worsening
  left ventricular systolic function: no consistent benefit
[1]; 200 mg/day, females
  left ventricular diastolic function (E/e′ or E/A ratio): negligible therapeutic benefit
  pulse pressure: no apparent therapeutic benefit
[1]; 200 mg/day, male patients compared to females
  progression of valve calcification, male versus female patients: much greater therapeutic benefit
[1]; 200 mg/day, male subjects
  left ventricular diastolic function (E/e′ or E/A ratio): predominant recipients of any therapeutic benefit
  left ventricular systolic function (ejection fraction or stroke volume): improved left ventricular systolic function
[1]; males, compared to placebo
  pulse pressure: reduction in pulse pressure
[1]; p=0.24 vs baseline
  aortic valve function vs baseline: did not worsen significantly
[1]; patients with higher vs lower baseline plasma LPA
  changes in valvular calcium in relation to baseline plasma LPA: tended to receive greater therapeutic benefit
